In patent US20010034448A1, “New compounds, their preparation and use” (priority 1998, published 2001):
Each block holds one compound with its values, some of them ahead of it.

Columns and labels:
[1] = test system: RAR; conditions: Heyman et al. Cell 1992, 68, 397-406; cited from earlier work
[2] = test system: ob/ob and db/db mice; conditions: Mukherjee et al., Nature 1997; cited from earlier work
[3] = test system: RXR/PPAR heterodimers; conditions: Mukherjee et al., Nature 1997, 386, 407-410; WO 97/10819; cited from earlier work

Structure (SMILES): CC1=C(/C=C/C(C)=C\C=C\C(C)=C\C(=O)O)C(C)(C)CCC1 [9-cis retinoic acid]
- activation of RAR [1]: activates both RXR and RAR

- melting point: 274.5 to 275.2 °C
Structure (SMILES): Cc1cc2c(cc1C13CC1CCC3=Cc1ccc(C(=O)O)cc1)C(C)(C)CCC2(C)C (stereo not shown) [Example 1, 4-[1-(3,5,5,8,8-Pentamethyl-5,6,7,8-tetrahydro-naphthalen-2-yl)-bicyclo[3.1.0]hex-2-ylidenemethyl]-benzoic Acid]

Structure (SMILES): Cc1cc2c(cc1C1(c3ccc(C(=O)O)cn3)CC1)C(C)(C)CCC2(C)C [LG 100268]
- glucose, insulin and triglyceride levels [2]: reduction in glucose, insulin and triglyceride levels
- activation of RXR/PPAR heterodimers [3]: activate RXR/PPAR heterodimers
